# Like-named read-outs stand apart in the source and are kept apart here. Marks after values point to notes of the source that are not given here.
# Assays:
# [1] = radio-biotin; streptavidin values from Klumb et al., 1998; cited from earlier work
# [2] = Fluorescent biotin conjugate dissociation assay; format: binding
# Method: FIG. 2 Biotin dissociation analysis. (A) The [3H]biotin dissociation rate constant was measured at different temperatures. The values for streptavidin are from Klumb et al. (Klumb et al., 1998). The scale of the Y axis is logarithmic. (B) Release of fluorescent biotin conjugate from avidins was studied as a function of time in the presence of excess D-biotin at 50° C.
# Ligand binding properties were studied both by [3H]biotin assay and fluorescent biotin conjugate assay. The dissociation rate constant of [3H]biotin (Amersham) from the bradavidins and avidin was measured at various temperatures as described in detail previously (Klumb et al., 1998). According to the results, (Table I, FIG. 2) the faster dissociation rate measured from bradavidin indicates weaker affinity toward the radiobiotin than those of avidin and streptavidin. The dissociation rate of a fluorescent biotin conjugate (ArcDia BF560™-biotin) was measured as previously described (Hytönen et al., 2004a) at 50° C.
# The apparent molecular mass is indicated and followed by the theoretical mass in brackets. Transition temperature (Tr) indicates the temperature in which half of the protein is tetrameric and half monomeric in the absence (first value) and presence (second value) of biotin. In addition to the measured dissociation rate constant (kdiss), the release percentage of the fluorescent biotin conjugate in one hour in the presence of excess free biotin is indicated. Calculated isoelectrical point (pI) and the number of cysteine residues per monomer are also indicated.
# [3] = values from Bayer et al., 1996, cited from earlier work
substance,measurement,setting,value
Streptavidin: bacterial analog for avidin from S. avidinii (SEQ ID NO:7) [reference compound],[3H]biotin dissociation rate (in words),[1],fell between these two
same,Fluorescent biotin kdiss,"[2]; ArcDia BF560-biotin, 50° C.",7.2e-06 s⁻¹
same,Fluorescent biotin conjugate dissociation (in words),[2]; fluorescent biotin conjugate as ligand,very slow and small release
same,Release 1 h of fluorescent biotin conjugate,"[2]; one hour, presence of excess free biotin, 50° C.",5.1%
same,Heat treatment SDS-PAGE Tr (transition temperature),[3]; absence of biotin,72^a ° C.
same,Heat treatment SDS-PAGE Tr (transition temperature),[3]; presence of biotin,100^a ° C.

# From patent US20100022401A1, “Avidin-like proteins from symbiotic bacteria” (LICENTIA OY, priority 2004, published 2010)
